Measurements as given in ChEMBL document CHEMBL5728837, “Non-fused tricyclic compounds” (2021).

Assay: YAP Reporter Assay: HEK293T cells stably transfected with 8XTBD luciferase reporter and pRLTK in 384-well plates were treated with the test compounds, starting from 3 μM (final concentration in assay plate), 1:3 dilution, and 10 points in quadruplicates. Post 24-hr incubation with compounds at 37° C. and 5% CO2, cells were lysed and 8XTBD-driven firefly luciferase and control TK-driven renilla luciferase activities were measured using Promega Dual-Luciferase Reporter Assay System.Reagents: The reagents used for this study are: DMEM: Invitrogen #11960077, Dual-Glo Luciferase Assay System: Promega-E2980, Puromycin Dihydrochloride: Invitrogen-A1113803, 384-well plate: PerkinElmer-6007480, L-GLUTAMINE: Invitrogen-25030164, Hygromycin B: Invitrogen-10687010, and Penicillin-Streptomycin: Merk-TMS-AB2-CMedia: The media used for this assay were: Culture Medium: DMEM+1 ug/mL puromycin+200 ug/mL hygromycin (with 10% FBS+1 mM L-glutamine); and Assay Medium: DMEM (with 10% FBS+1 mM L-glutamine+1× P/S).Cell Plating: The appropriate media was warmed at 37° C. by water bath: Culture Medium, Assay Medium, 1*D-PBS, 0.05% trypsin-EDTA. The cells were trypsinized after removing all media, then washed with 1*sterile D-PBS and then with 2 ml 0.05% trypsin-EDTA. The cells were then incubated at RT for one minute. Then 10 ml/75 cm2 flask Assay Medium was added to each flask. Using a 10 ml pipette, the cells were then gently resuspended in the media, until the clumps completely disappeared. The cells were then transferred into 50 ml centrifuge tubes and were centrifuged at 800 rpm for 5 mins. The medium was removed and the cells were resuspended with Assay Medium. An aliquot of cells was used to count the cell density (cells/nil). The cell suspension was then diluted with Assay Medium to a concentration of 6×10^4 cells/ml. 50 ul cells suspension was then plated to 384-well plate (PerkinElmer-6007480), 3×10^3 cells/well and the cells were incubated in an incubator at 37° C., 5% CO2.Compound Treatment: In the afternoon (incubation of the plate with 3-4 hrs), the test compounds were added by Echo, starting from 3 uM (final concentration in the assay plate), 1:3 dilution, 10 points, quadruplicates. The plate was placed at 37° C., 5% CO2 incubator for 24 hrs.Detection: The Dual-Glo Luciferase Reagent was prepared by transferring the contents of one bottle of Dual-Glo Luciferase Buffer to one bottle of Dual-Glo Luciferase Substrate to create the Dual-Glo Luciferase Reagent. Mixing was performed by inversion until the substrate was thoroughly dissolved. After mixing, the reagent was aliquoted into 15 ml tubes. In the afternoon (24 hrs post compound treatment), the DMEM+ medium in the 384 well plates were aspirated by Microplate Washer.Measuring firefly luciferase activity: 20 ul Dual-Glo Luciferase Reagent was added to the 384-well plates. The plates were protected from light to prevent interference with the assay. The plates were shaken for 1 min followed centrifuging plates at 1000 rpm for 30 seconds. After waiting at least 10 minutes, the firefly luminescence was measured by Envision.Measuring renilla luciferase activity: 20 ul Stop-Glo Reagent was added to the 384-well plates. The plates were shaken for lmin and then centrifuged at 1000 rpm for 30 seconds. After waiting at least 10 minutes, the renilla luminescence was measured by Envision.
Conditions: HEK-293T, 24 h

SMILES | IC50
OC1(Cn2nnc(-c3ccccc3Nc3ccc(C(F)(F)F)cc3)n2)CCNCC1 | in the range around 3000 nM
C[C@@H](O)[C@H](C)n1nnc(-c2ccccc2Nc2ccc(C(F)(F)F)cc2)n1 | < 100 nM
CNCCn1nnc(-c2ccccc2Nc2ccc(C(F)(F)F)cc2)n1 | in the range around 550 nM
Cn1nc(-c2ccccc2Nc2ccc(C(F)(F)F)cc2)nc1CCO | in the range around 3000 nM
FC(F)(F)OCCn1nnc(-c2ccccc2Nc2ccc(C(F)(F)F)cc2)n1 | in the range around 550 nM
O[C@H]1CNC[C@@H]1n1nnc(-c2ccccc2Nc2ccc(C(F)(F)F)cc2)n1 | in the range around 550 nM
C[C@H](O)[C@H](C)n1nnc(-c2ccccc2Nc2ccc(C(F)(F)F)cc2)n1 | < 100 nM
OC1(Cn2nnc(-c3ccccc3Nc3ccc(C(F)(F)F)cc3)n2)COC1 | < 100 nM
CC(C)(C)OC(=O)N1CCCC(O)(Cn2nnc(-c3ccccc3Nc3ccc(C(F)(F)F)cc3)n2)C1 (stereo unspecified) | in the range around 3000 nM
FC(F)OCCn1nnc(-c2ccccc2Nc2ccc(C(F)(F)F)cc2)n1 | in the range around 550 nM
OC1(Cn2nnc(-c3ccccc3Nc3ccc(C(F)(F)F)cc3)n2)CSC1 | < 100 nM
FC(F)(F)c1ccc(Nc2ccccc2-c2nnn(C3CCNC3)n2)cc1 (stereo unspecified) | in the range around 550 nM
OCCn1nnc(-c2c(F)cccc2Nc2ccc(C(F)(F)F)cc2)n1 | < 100 nM
COc1ccc(-c2nnn(CCO)n2)c(Nc2ccc(C(F)(F)F)cc2)c1 | < 100 nM
CNCCCn1nnc(-c2ccccc2Nc2ccc(C(F)(F)F)cc2)n1 | in the range around 3000 nM
OC1(Cn2nnc(-c3ccccc3Nc3ccc(C(F)(F)F)cc3)n2)CCCC1 | < 100 nM
FC(F)(F)c1ccc(Nc2ccccc2-c2nnn(CCOC3CCNCC3)n2)cc1 | in the range around 550 nM
OC1(Cn2nnc(-c3ccccc3Nc3ccc(C(F)(F)F)cc3)n2)CCNC1 (stereo unspecified) | in the range around 550 nM
OCCn1nnc(-c2cc(Cl)ccc2Nc2ccc(C(F)(F)F)cc2)n1 | < 100 nM
OCCn1nnc(-c2ccccc2Nc2ccc(Cl)cc2)n1 | in the range around 550 nM
FC(F)(F)c1ccc(Nc2ccccc2-c2nnn(-c3cccnc3)n2)cc1 | in the range around 3000 nM

SMILES | IC50
CO[C@@H](C)[C@H](C)n1nnc(-c2ccccc2Nc2ccc(C(F)(F)F)cc2)n1 | < 100 nM
[O-][S+]1CC(O)(Cn2nnc(-c3ccccc3Nc3ccc(C(F)(F)F)cc3)n2)C1 (stereo unspecified) | in the range around 550 nM
CCOC(=O)Cn1cnc(-c2ccccc2Nc2ccc(C(F)(F)F)cc2)c1 | in the range around 550 nM
OCCn1nnc(-c2ccc(F)cc2Nc2ccc(C(F)(F)F)cc2)n1 | < 100 nM
[N-]=[N+]=Nc1ccc(Nc2ccccc2-c2nnn(CCO)n2)cc1 | in the range around 550 nM
Cc1ccc(Nc2ccc(C(F)(F)F)cc2)c(-c2nnn(CCO)n2)c1 | < 100 nM
C[C@H](O)[C@@H](C)n1nnc(-c2ccccc2Nc2ccc(C(F)(F)F)cc2)n1 | < 100 nM
FC(F)(F)c1ccc(Nc2ccccc2-c2nnn(CC3CCC3)n2)cc1 | in the range around 550 nM
OCCn1nnc(-c2cc(F)ccc2Nc2ccc(C(F)(F)F)cc2)n1 | < 100 nM
C[C@H]([C@@H](C)O)n1nnc(-c2ccccc2Nc2ccc(C(F)(F)F)cc2)n1 | < 100 nM
Cn1nc(-c2ccccc2Nc2ccc(C(F)(F)F)cc2)cc1CCO | in the range around 3000 nM
O[C@H]1CCC[C@H]1n1nnc(-c2ccccc2Nc2ccc(C(F)(F)F)cc2)n1 | < 100 nM
OC1(Cn2nnc(-c3ccccc3Nc3ccc(C(F)(F)F)cc3)n2)CCCNC1 (stereo unspecified) | in the range around 550 nM
O[C@@H]1CNC[C@H]1n1nnc(-c2ccccc2Nc2ccc(C(F)(F)F)cc2)n1 | in the range around 550 nM
O[C@@H]1CCC[C@@H]1n1nnc(-c2ccccc2Nc2ccc(C(F)(F)F)cc2)n1 | in the range around 550 nM
OC1(Cn2nnc(-c3ccccc3Nc3ccc(C(F)(F)F)cc3)n2)CCN(c2ccccc2)C1 (stereo unspecified) | in the range around 3000 nM
FC(F)(F)c1ccc(Nc2ccccc2-c2nnn(C3CNC3)n2)cc1 | in the range around 3000 nM
COCCn1nnc(-c2ccccc2Nc2ccc(C(F)(F)F)cc2)n1 | < 100 nM
OC(Cn1nnc(-c2ccccc2Nc2ccc(C(F)(F)F)cc2)n1)c1ccccc1 (stereo unspecified) | in the range around 3000 nM
OCCn1nnc(-c2ccccc2Nc2ccc(C(F)(F)F)c(Cl)c2)n1 | < 100 nM
CCC(O)Cn1nnc(-c2ccccc2Nc2ccc(C(F)(F)F)cc2)n1 (stereo unspecified) | < 100 nM

SMILES | IC50
OC1(Cn2nnc(-c3ccccc3Nc3ccc(C(F)(F)F)cc3)n2)CCCOC1 (stereo unspecified) | in the range around 550 nM
O=C1NCC(Cn2nnc(-c3ccccc3Nc3ccc(C(F)(F)F)cc3)n2)O1 (stereo unspecified) | in the range around 550 nM
CO[C@H](C)[C@@H](C)n1nnc(-c2ccccc2Nc2ccc(C(F)(F)F)cc2)n1 | in the range around 550 nM
OC1(Cn2nnc(-c3ccccc3Nc3ccc(C(F)(F)F)cc3)n2)CNC1 | in the range around 550 nM
CC(=O)N1CCCC(O)(Cn2nnc(-c3ccccc3Nc3ccc(C(F)(F)F)cc3)n2)C1 (stereo unspecified) | in the range around 550 nM
NCCCn1nnc(-c2ccccc2Nc2ccc(C(F)(F)F)cc2)n1 | in the range around 550 nM
Cn1nnc(-c2ccccc2Nc2ccc(C(F)(F)F)cc2)n1 | in the range around 550 nM
O=C1NCC(Cn2nnc(-c3ccccc3Nc3ccc(C(F)(F)F)cc3)n2)N1 (stereo unspecified) | in the range around 550 nM
CC(=O)OC1(CN2N=C(c3ccccc3Nc3ccc(C(F)(F)F)cc3)NN2)CN(C(C)=O)C1 | in the range around 3000 nM
OC1(Cn2nnc(-c3ccccc3Nc3ccc(C(F)(F)F)cc3)n2)CCC1 | < 100 nM
OCCn1nnc(-c2cccc(F)c2Nc2ccc(C(F)(F)F)cc2)n1 | < 100 nM
CC(CO)c1nc(-c2ccccc2Nc2ccc(C(F)(F)F)cc2)nn1C (stereo unspecified) | in the range around 3000 nM
CO[C@@H](C)[C@@H](C)n1nnc(-c2ccccc2Nc2ccc(C(F)(F)F)cc2)n1 | < 100 nM
CO[C@H](C)[C@H](C)n1nnc(-c2ccccc2Nc2ccc(C(F)(F)F)cc2)n1 | in the range around 550 nM
O=C1NC(Cn2nnc(-c3ccccc3Nc3ccc(C(F)(F)F)cc3)n2)CO1 (stereo unspecified) | in the range around 550 nM
OC1(Cn2nnc(-c3ccccc3Nc3ccc(C(F)(F)F)cc3)n2)CCOC1 (stereo unspecified) | < 100 nM
CC(=O)N1CC(O)(Cn2nnc(-c3ccccc3Nc3ccc(C(F)(F)F)cc3)n2)C1 | in the range around 550 nM
NCCn1cnc(-c2ccccc2Nc2ccc(C(F)(F)F)cc2)n1 | in the range around 550 nM
CC(C)C(O)Cn1nnc(-c2ccccc2Nc2ccc(C(F)(F)F)cc2)n1 (stereo unspecified) | in the range around 550 nM
OC1(Cn2nnc(-c3ccccc3Nc3ccc(C(F)(F)F)cc3)n2)CCCN(c2ccccc2)C1 (stereo unspecified) | in the range around 550 nM
COC1CCCC1n1nnc(-c2ccccc2Nc2ccc(C(F)(F)F)cc2)n1 (stereo unspecified) | in the range around 550 nM

SMILES | IC50
OC1(Cn2nnc(-c3ccccc3Nc3ccc(C(F)(F)F)cc3)n2)CC1 | < 100 nM
CC(=O)N1CCC(O)(Cn2nnc(-c3ccccc3Nc3ccc(C(F)(F)F)cc3)n2)C1 (stereo unspecified) | in the range around 550 nM
OCCn1nnc(-c2ccccc2Nc2cccc(Cl)c2)n1 | in the range around 3000 nM
COc1ccc(Nc2ccc(C(F)(F)F)cc2)c(-c2nnn(CCO)n2)c1 | < 100 nM
OCCn1nnc(-c2ccccc2Nc2ccc(SC(F)(F)F)cc2)n1 | in the range around 550 nM
OCCn1nnc(-c2ccc(Cl)cc2Nc2ccc(C(F)(F)F)cc2)n1 | < 100 nM
C[C@H](c1ccccc1)N1C(=O)OC[C@H]1Cn1nnc(-c2ccccc2Nc2ccc(C(F)(F)F)cc2)n1 | in the range around 550 nM
OC1(Cn2nnc(-c3ccccc3Nc3ccc(C(F)(F)F)cc3)n2)CCCCC1 | in the range around 550 nM
OCCn1nnc(-c2ccccc2Nc2ccc(Br)cc2)n1 | in the range around 550 nM
CC(N)Cn1nnc(-c2ccccc2Nc2ccc(C(F)(F)F)cc2)n1 (stereo unspecified) | in the range around 550 nM
FC(F)(F)c1ccc(Nc2ccccc2-c2nnn(CC3COC3)n2)cc1 | in the range around 550 nM
FC(F)(F)c1ccc(Nc2ccccc2-c2nnn(-c3ccccn3)n2)cc1 | in the range around 550 nM
CC(CN)n1nnc(-c2ccccc2Nc2ccc(C(F)(F)F)cc2)n1 (stereo unspecified) | < 100 nM
NCCn1nnc(-c2ccccc2Nc2ccc(C(F)(F)F)cc2)n1 | in the range around 550 nM
OCCn1cnc(-c2ccccc2Nc2ccc(C(F)(F)F)cc2)c1 | in the range around 550 nM
O=C1N[C@H](Cn2nnc(-c3ccccc3Nc3ccc(C(F)(F)F)cc3)n2)CO1 | in the range around 550 nM
OC1(Cn2nnc(-c3ccccc3Nc3ccc(C(F)(F)F)cc3)n2)CCOCC1 | in the range around 550 nM
Cc1ccc(-c2nnn(CCO)n2)c(Nc2ccc(C(F)(F)F)cc2)c1 | < 100 nM
